The values below are quoted from earlier work in publication PMC12042267, “Expanding the Family of Monosubstituted 15-Membered Pyridine-Based Macrocyclic Ligands for Mn(II) Complexation in the Context of MRI” (Inorganic Chemistry, 2025).

For series [1] the following is noted: Zn(II), cited from earlier work.
For series [2] the following is noted: Mn(II) complex, cited from earlier work; for dissociation half-life t1/2: calculated for pH 7.4.
The conditions of series [3]: cited from earlier work.
The conditions of series [4]: Cu(II), cited from earlier work.
For series [5] the following is noted: cited from earlier work; for log KML / log KHML / log KML(OH): Mn(II).
For series [6] the following is noted: Ca(II), cited from earlier work.
For series [7] the following is noted: Mn(II) complex, cited from earlier work.
[8] abbreviates: I = 0.15 M NaCl, 25 °C, log KMnHL in Table 5 ref 21.
Setting [9] is: pH 7.4, cMn = clig = 10^–5 M ref 21.
[10] abbreviates: pH 7.4, cMn = clig = 10^–5 M ref 30.

Where two headings read alike, the source gives them in different places. Marks after values point to notes of the source that are not given here.

With `O=C(O)CN1CCNCCN(CC(=O)O)Cc2cccc(n2)C1` [3,9-PC2A], in series [1] (I = 0.15 M NaCl, 25 °C ref 21), the “log KHML” value is given as 2.74 and the “log KML” value is 19.49. For the same molecule, in series [2] (Cu(II) transmetalation ref 21), the k1 is 221 ± 5 M^–1 s^–1 and the k3 result was “(3.6 ± 0.7) × 10^–2 M^–1 s^–1”. Moreover, the “dissociation half-life t1/2” value in series [2] (Cu(II) ref 21) is reported as 21.0 h. Moreover, in series [3] (0.1 M KCl ref 42), the “log K1^H” value is recorded as 12.50, the “log K2^H” value is 5.75, the “log K3^H” value is given as 3.28 and the “log K4^H” value is listed as 2.38. Moreover, in series [3] (I = 0.15 M NaCl, 25 °C ref 21), the “log K1^H” value was 12.25, the “log K2^H” value is reported as 5.97, the “log K3^H” value is reported as 3.47 and the “log K4^H” value is given as 1.99. In series [4] (I = 0.15 M NaCl, 25 °C ref 21), the “log KHML” value is listed as 2.12 and the “log KML” value was 23.58. The “log KML” value in series [5] (I = 0.15 M NaCl, 25 °C ref 21) is listed as 17.09. In addition, the “log KHML” value in series [5] (setting [8]) is reported as 2.14. The pMn in series [5] (setting [9]) was 8.64. In series [6] (I = 0.15 M NaCl, 25 °C ref 21), the “log KHML” value is reported as 5.08 and the “log KML” value is listed as 9.92.

For `O=C(O)CN1CCOCCOCCNCc2cccc(n2)C1` [L1], in series [1] (I = 0.15 M NaCl, 25 °C ref 30), the “log KHML” value is on record as 2.80 and the “log KML” value was 13.12. For the same molecule, in series [3] (I = 0.15 M NaCl, 25 °C ref 30), the “log K1^H” value was 8.86, the “log K2^H” value is 8.03 and the “log K3^H” value was 1.9. In series [7] (Zn(II) transmetalation ref 30), the k0 result is listed as “(4.1 ± 0.3) × 10^–3 s^–1” and the k1 was 1691 ± 41 M^–1 s^–1. Moreover, in series [7] (calculated for pH 7.4, Zn(II) ref 30), the “dissociation half-life t1/2” value is reported as 2.8 min. In series [4] (I = 0.15 M NaCl, 25 °C ref 30), the “log KHML” value is recorded as 2.67, the “log KML” value is listed as 15.86 and the “log KML(OH)” value is -9.7. For the same molecule, the “log KML” value in series [5] (I = 0.15 M NaCl, 25 °C ref 30) is 11.06. In addition, in series [5] (I = 0.15 M NaCl, 25 °C, log KMnHL in Table 5 ref 30), the “log KHML” value was 3.82. Also, in series [5] (setting [10]), the pMn was 6.95. Also, in series [6] (I = 0.15 M NaCl, 25 °C ref 30), the “log KHML” value is listed as 6.37 and the “log KML” value is 5.51.

On to `c1cc2nc(c1)CNCCOCCOCCNC2` [15-pyN3O2], for which, in series [1] (0.1 M NMe4Cl ref 28), the “log KML” value was 8.58 and the “log KML(OH)” value is given as -10.31. In series [3] (0.1 M NMe4Cl ref 28), the “log K1^H” value is 8.82 and the “log K2^H” value was 7.80. Besides, in series [4] (0.1 M NMe4Cl ref 28), the “log KML” value is given as 13.91, the “log KML(OH)” value is recorded as -8.34 and the “log KML(OH)2” value is -12.57. Besides, in series [5] (0.1 M NMe4Cl ref 28), the “log KML” value is listed as 7.18 and the “log KML(OH)” value is on record as -11.69. In addition, in series [5] (pH 7.4, cMn = clig = 10^–5 M ref 28), the pMn is 5.28. Also, in series [6] (0.1 M NMe4Cl ref 28), the “log KML” value is recorded as 2.04 and the “log KML(OH)” value was -11.92.

Take `c1cc2nc(c1)CNCCOc1ccccc1OCCNC2` [15-pyN3O2Ph]: the “log KML” value in series [1] (I = 0.15 M NaCl, 25 °C ref 29) is listed as 7.70; in series [4] (I = 0.15 M NaCl, 25 °C ref 29), 13.97; in series [5] (I = 0.15 M NaCl, 25 °C ref 29), 5.62; in series [6] (I = 0.15 M NaCl, 25 °C ref 29), 1.85. The “log KML(OH)” value is on record as -9.62 in series [1] (I = 0.15 M NaCl, 25 °C ref 29); -8.95 in series [4] (I = 0.15 M NaCl, 25 °C ref 29); -10.50 in series [5] (I = 0.15 M NaCl, 25 °C ref 29). The “log K1^H” value in series [3] (I = 0.15 M NaCl, 25 °C ref 29) was 8.53. Moreover, in series [3] (I = 0.15 M NaCl, 25 °C ref 29), the “log K2^H” value is given as 7.63. In addition, in series [5] (setting [10]), the pMn was 5.04^a.

`O=C(O)CN1CCN(Cc2ccc(-c3ccccc3)cc2)CCN(CC(=O)O)Cc2cccc(n2)C1` [PC2A-BP]: in series [1] (I = 0.15 M NaCl, 25 °C ref 23), the “log KHML” value is 1.71 and the “log KML” value is recorded as 18.05. Also, the k1 in series [2] (Cu(II) transmetalation ref 23) is reported as 16.9 ± 0.2 M^–1 s^–1. The “dissociation half-life t1/2” value in series [2] (Cu(II) ref 23) was 286.2 h. In series [3] (I = 0.15 M NaCl, 25 °C ref 23), the “log K1^H” value is recorded as 10.45, the “log K2^H” value is 6.93, the “log K3^H” value is listed as 2.36 and the “log K4^H” value was 1.64. Besides, in series [4] (I = 0.15 M NaCl, 25 °C ref 23), the “log KHML” value was 1.04 and the “log KML” value is on record as 22.30. The “log KML” value in series [5] (I = 0.15 M NaCl, 25 °C ref 23) is on record as 14.86. The pMn in series [5] (pH 7.4, cMn = clig = 10^–5 M ref 23) was 8.35. In series [6] (I = 0.15 M NaCl, 25 °C ref 23), the “log KML” value is listed as 7.94.

As to `O=C(O)CN1CCNCc2cccc(n2)CN(CC(=O)O)CC1` [3,6-PC2A], in series [1] (I = 0.15 M NaCl, 25 °C ref 21), the “log KHML” value was 2.36 and the “log KML” value was 20.37. Further, in series [2] (Cu(II) transmetalation ref 21), the k1 was 70 ± 1 M^–1 s^–1, the k2 entry is “(1.5 ± 0.4) × 10^5 M^–2 s^–1” and the k3 result is recorded as “(2.6 ± 0.7) × 10^–2 M^–1 s^–1”. Besides, in series [2] (Cu(II) ref 21), the “dissociation half-life t1/2” value was 63.2 h. Further, in series [3] (1.0 M NaCl ref 21), the “log K1^H” value was 10.31, the “log K2^H” value is recorded as 8.59, the “log K3^H” value is on record as 3.92 and the “log K4^H” value is given as 1.56. Besides, in series [3] (I = 0.15 M NaCl, 25 °C ref 21), the “log K1^H” value is recorded as 10.72, the “log K2^H” value is on record as 8.37, the “log K3^H” value is on record as 3.81 and the “log K4^H” value is 1.26. Moreover, in series [4] (I = 0.15 M NaCl, 25 °C ref 21), the “log KHML” value is 2.37 and the “log KML” value is 24.09. Further, in series [5] (I = 0.15 M NaCl, 25 °C ref 21), the “log KML” value was 15.53. Also, the “log KHML” value in series [5] (setting [8]) is recorded as 3.06. The pMn in series [5] (setting [9]) is 8.09. Further, in series [6] (I = 0.15 M NaCl, 25 °C ref 21), the “log KHML” value is listed as 5.27 and the “log KML” value is given as 9.57.

Turning to `O=C(O)CN1CCOCCN(CC(=O)O)Cc2cccc(n2)C1` [3,9-OPC2A], in series [1] (I = 0.15 M NaCl, 25 °C ref 26), the “log KHML” value is given as 2.08, the “log KML” value was 14.81 and the “log KML(OH)” value is on record as -10.95. Further, in series [2] (Cu(II) transmetalation ref 26), the k0 result is on record as “(8.6 ± 1.1) × 10^–6 s^–1” and the k1 is listed as 2.81 ± 0.07 M^–1 s^–1. In addition, the “dissociation half-life t1/2” value in series [2] (Cu(II) ref 26) was 21.9 h. In series [3] (I = 0.15 M NaCl, 25 °C ref 26), the “log K1^H” value is given as 7.73, the “log K2^H” value is reported as 7.66 and the “log K3^H” value is reported as 2.13. In series [4] (I = 0.15 M NaCl, 25 °C ref 26), the “log KHML” value was 1.92, the “log KML” value is on record as 18.41 and the “log KML(OH)” value is -10.50. For the same molecule, in series [5] (I = 0.15 M NaCl, 25 °C ref 26), the “log KML” value is on record as 13.03 and the “log KML(OH)” value is -11.49. For the same molecule, the pMn in series [5] (pH 7.4, cMn = clig = 10^–5 M ref 26) was 8.69. For the same molecule, the “log KML” value in series [6] (I = 0.15 M NaCl, 25 °C ref 26) was 8.27.

`O=P(O)(O)CN1CCNCc2cccc(n2)CNCC1` [PC1P]: in series [1] (0.1 M NMe4Cl ref 20), the “log KHML” value is recorded as 5.19, the “log KML” value was 19.66 and the “log KML(OH)” value is listed as 12.33. Besides, in series [3] (0.1 M NMe4Cl ref 20), the “log K1^H” value is 11.84, the “log K2^H” value is on record as 9.64, the “log K3^H” value is given as 6.23 and the “log K4^H” value is listed as 0.99. Moreover, in series [4] (0.1 M NMe4Cl ref 20), the “log KHML” value was 4.89 and the “log KML” value is listed as 22.63. In addition, in series [5] (0.1 M NMe4Cl ref 20), the “log KML” value was 14.06 and the “log KML(OH)” value is -11.97. Also, in series [5] (0.1 M NMe4Cl, log KMnHL in Table 5 ref 20), the “log KHML” value is listed as 5.35. Also, the pMn in series [5] (pH 7.4, cMn = clig = 10^–5 M ref 20) is 8.30. The “log KML” value in series [6] (0.1 M NMe4Cl ref 20) is 6.85.
